Assay results published in patent publication US20190231748A1, “COMPOSITION FOR VAGINA AND ANTIMICROBIAL AGENT COMBINATION FOR USE IN PREPARING COMPOSITION FOR VAGINA” (Shenzhen Eulikan Biotechnology Co., Ltd., priority 2016, published 2019).

Experiments:
Assay type in all cases: cell-based
[1] = system: nine strains of Candida albicans; assay: Growth of Candida in enrichment broth after 24 hours, clinical strains; design: key to growth of Candida albicans, strain 1 / growth of Candida albicans, strain 2 / growth of Candida albicans, strain 3 / growth of Candida albicans, strain 4 / growth of Candida albicans, strain 5 / growth of Candida albicans, strain 6 / growth of Candida albicans, strain 7 / growth of Candida albicans, strain 8 / growth of Candida albicans, strain 9: +: means the growth of organisms; −: means no growth of organisms; conditions: enrichment broth, 37° C. for 24 hours
Description: b. Enrichment broth: which contained 1 percent of yeast extract powder, 9 percent of sucrose, 0.025 percent of manganese sulfate (MnSO4.4H2O), 0.058 percent of magnesium sulfate (MgSO4.7H2O), and 0.9 percent of lactic acid, the pH value of the broth was adjusted to 4.5, and the enrichment broth was sterilized for later use;
(2) Experimental groups: the requirements of aseptic operation technique were strictly followed so to prepare the sterile test tubes;
a. sodium benzoate group: each test tube contained 5 milliliters enrichment broth, and was added in 0.025 percent (weight/volume) of sodium benzoate;
b. 2-phenylethanol group: each test tube contained 5 milliliters enrichment broth, and was added in 0.050 percent (weight/volume) of 2-phenylethanol;
c. sodium propionate group: each test tube contained 5 milliliters enrichment broth, and was added in 0.125 percent (weight/volume) of sodium propionate;
d. “a group of the combinations of sodium benzoate and sodium propionate”: each test tube contained 5 milliliters enrichment broth, and was added in 0.025 percent (weight/volume) of sodium benzoate and 0.125 percent (weight/volume) of sodium propionate;
e. “a group of the combinations of sodium benzoate and 2-phenylethanol”: each test tube contained 5 milliliters enrichment broth, and was added in 0.025 percent (weight/volume) of sodium benzoate and 0.050 percent (weight/volume) of 2-phenylethanol;
f. “a group of the combinations of sodium propionate and 2-phenylethanol”: each test tube contained 5 milliliters enrichment broth, and was added in 0.125 percent (weight/volume) of sodium propionate and 0.050 percent (weight/volume) of 2-phenylethanol;
g. “a group of the combinations of sodium benzoate, sodium propionate and 2-phenylethanol”: each test tube contained 5 milliliters enrichment broth, and was added in 0.025 percent (weight/volume) of sodium benzoate, 0.125 percent (weight/volume) of sodium propionate and 0.050 percent (weight/volume) of 2-phenylethanol;
h. positive control: the control tube of enrichment broth without adding in 2-phenylethanol, sodium benzoate, and sodium propionate; but inoculated the suspension of Candida albicans;
i. negative control: the control tube of enrichment broth without adding in 2-phenylethanol, sodium benzoate, and sodium propionate; and without inoculating Candida albicans;
The requirements for aseptic operation technique were strictly followed to prepare the suspension of organism. The colonies of each strain of Candida albicans organism were diluted with physiological saline respectively. The turbidities of the suspensions of Candida albicans organism were adjusted to 0.5 MCF (about 10^8 CFU/ml) by a turbidimeter. 1 milliliter of the 0.5 MCF organism suspension was added into 9 milliliters of enrichment broth. Each suspension was diluted for ten times to contain 10^7 CFU/ml of organisms.
the requirements for aseptic technique were strictly followed to take 100 microliters of the prepared organism suspension respectively and to add the suspension into the test tubes from a to h as well as the positive control tube. No organism suspension was added into the negative control tube i.
The above tubes were cultured in a biochemical incubator at 37° C. for 24 hours. Then the growth of Candida in each tube was observed and recorded.
Remark: “+” means the growth of organisms; “−” means no growth of organisms.

[2] = system: Lactococcus lactis and Lactobacillus jensenii; assay: pH of test gel after co-culture of Lactococcus lactis and Lactobacillus jensenii; conditions: cultivated 32 hours
Description: (§1) 2.1 Experimental strains: one Lactococcus lactis strain and one Lactobacillus jensenii strain, both were clinical isolates.
(§2) The pH value was adjusted to 5.0.
(§3) 2.4 Experimental procedure: the test gel tubes containing different concentrations of antimicrobial agents, as shown in Tables 1 to 6 were inoculated with 100 microliters of Lactobacillus lactis suspension and 100 microliters of Lactobacillus jensenii suspension at the same time. The turbidities of both suspensions were 0.5 MCF. Then the tubes were cultivated at 37° C. and under 5 percent CO2 for 32 hours. Then the changes of the pH values of gels were tested. The gels were smeared, Gram stained, and microscopically examined for the morphology and quantity of bacteria.

Lactococcus lactis = assay: Gram-stained smear of co-culture gel, Gram-positive cocci (G+c); conditions: for Smear G^+c: cultivated 32 hours
Description: as §1, §2, §3

Lactobacillus jensenii = assay: Gram-stained smear of co-culture gel, Gram-positive rods (G+b); conditions: for Smear G^+b: cultivated 32 hours
Description: as §1, §2, §3

O=C([O-])c1ccccc1.[Na+] [d. 0.025% sodium benzoate]
+: growth of Candida albicans, strain 1 [1] | growth of Candida albicans, strain 2 [1] | growth of Candida albicans, strain 3 [1] | growth of Candida albicans, strain 4 [1] | growth of Candida albicans, strain 5 [1] | growth of Candida albicans, strain 6 [1] | growth of Candida albicans, strain 7 [1] | growth of Candida albicans, strain 8 [1] | growth of Candida albicans, strain 9 [1]

OCCc1ccccc1 [e. 0.050% 2-phenylethanol]
+: growth of Candida albicans, strain 2 [1] | growth of Candida albicans, strain 3 [1] | growth of Candida albicans, strain 4 [1] | growth of Candida albicans, strain 5 [1] | growth of Candida albicans, strain 6 [1] | growth of Candida albicans, strain 8 [1] | growth of Candida albicans, strain 9 [1]
−: growth of Candida albicans, strain 1 [1] | growth of Candida albicans, strain 7 [1]

CCC(=O)[O-].[Na+] [f. 0.125% sodium propionate]
+: growth of Candida albicans, strain 1 [1] | growth of Candida albicans, strain 2 [1] | growth of Candida albicans, strain 4 [1] | growth of Candida albicans, strain 5 [1] | growth of Candida albicans, strain 6 [1] | growth of Candida albicans, strain 8 [1]
−: growth of Candida albicans, strain 3 [1] | growth of Candida albicans, strain 7 [1] | growth of Candida albicans, strain 9 [1]

CC(=O)[O-].[Na+] [sodium acetate]
3.8: pH value ([2]; 0.6 % in test gel) | pH value ([2]; 0.7 % in test gel)
G^+b+: Smear G^+b (Lactobacillus jensenii; 0.1 % in test gel) | Smear G^+b (Lactobacillus jensenii; 0.2 % in test gel) | Smear G^+b (Lactobacillus jensenii; 0.3 % in test gel) | Smear G^+b (Lactobacillus jensenii; 0.4 % in test gel) | Smear G^+b (Lactobacillus jensenii; 0.5 % in test gel) | Smear G^+b (Lactobacillus jensenii; 0.6 % in test gel) | Smear G^+b (Lactobacillus jensenii; 0.7 % in test gel) | Smear G^+b (Lactobacillus jensenii; 0.8 % in test gel)
<3.8: pH value ([2]; 0.1 % in test gel) | pH value ([2]; 0.2 % in test gel) | pH value ([2]; 0.3 % in test gel) | pH value ([2]; 0.4 % in test gel) | pH value ([2]; 0.5 % in test gel)
G^+c++: Smear G^+c (Lactococcus lactis; 0.1 % in test gel) | Smear G^+c (Lactococcus lactis; 0.2 % in test gel) | Smear G^+c (Lactococcus lactis; 0.3 % in test gel) | Smear G^+c (Lactococcus lactis; 0.4 % in test gel) | Smear G^+c (Lactococcus lactis; 0.5 % in test gel) | Smear G^+c (Lactococcus lactis; 0.6 % in test gel) | Smear G^+c (Lactococcus lactis; 0.7 % in test gel) | Smear G^+c (Lactococcus lactis; 0.8 % in test gel)
little inhibition effect: inhibition effect on the growth of Lactococcus lactis (Lactococcus lactis; 0.1 to 0.8 percent)
3.8-4.1: pH value ([2]; 0.8 % in test gel)

CC(=O)c1c([O-])cc(C)oc1=O.[Na+] [sodium dehydroacetate]
G^+c++: Smear G^+c (Lactococcus lactis; 0.005 % in test gel) | Smear G^+c (Lactococcus lactis; 0.010 % in test gel) | Smear G^+c (Lactococcus lactis; 0.015 % in test gel) | Smear G^+c (Lactococcus lactis; 0.020 % in test gel) | Smear G^+c (Lactococcus lactis; 0.025 % in test gel) | Smear G^+c (Lactococcus lactis; 0.030 % in test gel) | Smear G^+c (Lactococcus lactis; 0.035 % in test gel)
G^+b+: Smear G^+b (Lactobacillus jensenii; 0.005 % in test gel) | Smear G^+b (Lactobacillus jensenii; 0.010 % in test gel) | Smear G^+b (Lactobacillus jensenii; 0.015 % in test gel) | Smear G^+b (Lactobacillus jensenii; 0.020 % in test gel) | Smear G^+b (Lactobacillus jensenii; 0.025 % in test gel) | Smear G^+b (Lactobacillus jensenii; 0.030 % in test gel) | Smear G^+b (Lactobacillus jensenii; 0.035 % in test gel)
little inhibition effect: inhibition effect on the growth of Lactococcus lactis (Lactococcus lactis; 0.005 to 0.035 percent)
3.8: pH value ([2]; 0.005 % in test gel) | pH value ([2]; 0.010 % in test gel) | pH value ([2]; 0.015 % in test gel) | pH value ([2]; 0.020 % in test gel) | pH value ([2]; 0.025 % in test gel) | pH value ([2]; 0.030 % in test gel) | pH value ([2]; 0.035 % in test gel)

CCCCCCCC(=O)[O-].[Na+] [sodium octanoate]
stronger inhibiting effect: inhibiting effect on Lactococcus lactis (Lactococcus lactis; 0.05 percent) | inhibiting effect on lactobacillus (Lactobacillus jensenii; 0.05 percent)
4.8: pH value ([2]; 0.05 % in test gel)
little inhibition effect: inhibition effect on the growth of Lactococcus lactis (Lactococcus lactis; 0.010 to 0.020 percent)
G^+c++++: Smear G^+c (Lactococcus lactis; 0.010 % in test gel) | Smear G^+c (Lactococcus lactis; 0.015 % in test gel) | Smear G^+c (Lactococcus lactis; 0.020 % in test gel)
3.8: pH value ([2]; 0.020 % in test gel)
G^+b+: Smear G^+b (Lactobacillus jensenii; 0.010 % in test gel) | Smear G^+b (Lactobacillus jensenii; 0.015 % in test gel) | Smear G^+b (Lactobacillus jensenii; 0.020 % in test gel)
<3.8: pH value ([2]; 0.010 % in test gel) | pH value ([2]; 0.015 % in test gel)
